In ChEMBL document CHEMBL1133290, “Quantitative structure-intestinal permeability relationship of benzamidine analogue thrombin inhibitor” (2000):

Species on record: Rattus norvegicus
Experiment: Everted sac permeability (ESA) of rat small intestine, after addition of thrombin inhibitor
Format: functional

| Structure (SMILES) | Log ESA |
| --- | --- |
| CC(=O)N1CCN(C(=O)C(Cc2cccc(C(=N)N)c2)NS(=O)(=O)NCc2ccc(CO)cc2)CC1 (stereo unspecified) | -0.836 |
| CC(=O)N1CCN(C(=O)C(Cc2cccc(C(=N)N)c2)NS(=O)(=O)NCCc2ccc3ccccc3c2)CC1 (stereo unspecified) | -1.032 |
| COc1cccc(CNS(=O)(=O)NC(Cc2cccc(C(=N)N)c2)C(=O)N2Cc3ccccc3C2C(=O)O)c1OC (stereo unspecified) | -0.879 |
| CC(=O)N1CCN(C(=O)C(Cc2cccc(C(=N)N)c2)NS(=O)(=O)NCc2cc(Br)cc3ccccc23)CC1 (stereo unspecified) | -1.367 |
| CC(=O)N1CCN(C(=O)C(Cc2cccc(C(=N)N)c2)NS(=O)(=O)NCCc2ccc3c(c2)OCCO3)CC1 (stereo unspecified) | -0.654 |
| CC(=O)N1CCN(C(=O)C(Cc2cccc(C(=N)N)c2)NS(=O)(=O)NCC2CCCCO2)CC1 (stereo unspecified) | -0.708 |
| CC(=O)N1CCN(C(=O)C(Cc2cccc(C(=N)N)c2)NS(=O)(=O)NCC(C)c2ccccc2)CC1 (stereo unspecified) | -0.889 |
| COc1cccc(CNS(=O)(=O)NC(Cc2cccc(C(=N)N)c2)C(=O)N2CCC(C)CC2C(=O)O)c1OC (stereo unspecified) | -1 |
| CC(=O)N1CCN(C(=O)C(Cc2cccc(C(=N)N)c2)NS(=O)(=O)NCc2ccccc2)CC1 (stereo unspecified) | -0.81 |
| CCOc1ccccc1CNS(=O)(=O)NC(Cc1cccc(C(=N)N)c1)C(=O)N1CCN(C(C)=O)CC1 (stereo unspecified) | -0.876 |
| CC(=O)N1CCN(C(=O)C(Cc2cccc(C(=N)N)c2)NS(=O)(=O)NCC2CCCN2Cc2ccccc2)CC1 (stereo unspecified) | -0.963 |
| COc1cccc(CNS(=O)(=O)NC(Cc2cccc(C(=N)N)c2)C(=O)N2CCN(C(C)=O)CC2)c1 (stereo unspecified) | -0.804 |
| COc1ccc(CNS(=O)(=O)NC(Cc2cccc(C(=N)N)c2)C(=O)N2CCN(C(C)=O)CC2)cc1OC (stereo unspecified) | -0.633 |
| CC(=O)N1CCN(C(=O)C(Cc2cccc(C(=N)N)c2)NS(=O)(=O)NCCc2cccc([N+](=O)[O-])c2)CC1 (stereo unspecified) | -0.688 |
| COc1cc(CNS(=O)(=O)NC(Cc2cccc(C(=N)N)c2)C(=O)N2CCN(C(C)=O)CC2)ccc1[N+](=O)[O-] (stereo unspecified) | -0.559 |
| CC(=O)N1CCN(C(=O)C(Cc2cccc(C(=N)N)c2)NS(=O)(=O)NCc2c(F)c(F)c(F)c(F)c2F)CC1 (stereo unspecified) | -0.65 |
| CC(=O)N1CCN(C(=O)C(Cc2cccc(C(=N)N)c2)NS(=O)(=O)NCC(C)(c2ccccc2)c2ccccc2)CC1 (stereo unspecified) | -1.456 |
| CC(=O)N1CCN(C(=O)C(Cc2cccc(C(=N)N)c2)NS(=O)(=O)NCc2ccc3ccccc3c2)CC1 (stereo unspecified) | -0.932 |
| COc1cccc(CNS(=O)(=O)NC(Cc2cccc(C(=N)N)c2)C(=O)N2CCN(C(C)=O)CC2)c1O (stereo unspecified) | -0.833 |
| CCOc1c(CNS(=O)(=O)NC(Cc2cccc(C(=N)N)c2)C(=O)N2CCN(C(C)=O)CC2)sc2ccccc12 (stereo unspecified) | -0.983 |
| CNC1CCN(C(=O)C(Cc2cccc(C(=N)N)c2)NS(=O)(=O)NCc2cccc(OC)c2OC)CC1 (stereo unspecified) | -0.686 |
| COc1ccc(CNS(=O)(=O)NC(Cc2cccc(C(=N)N)c2)C(=O)N2CCN(C(C)=O)CC2)c(OC)c1 (stereo unspecified) | -0.602 |
| CC(=O)N1CCN(C(=O)C(Cc2cccc(C(=N)N)c2)NS(=O)(=O)NCCc2cc3c(cc2[N+](=O)[O-])OCO3)CC1 (stereo unspecified) | -0.564 |
| CC(=O)N1CCN(C(=O)C(Cc2cccc(C(=N)N)c2)NS(=O)(=O)NCc2cccc3cc(O)ccc23)CC1 (stereo unspecified) | -0.59 |
| CC(=O)N1CCN(C(=O)C(Cc2cccc(C(=N)N)c2)NS(=O)(=O)NCCc2nccc3ccccc23)CC1 (stereo unspecified) | -0.635 |
| CC(=O)N1CCN(C(=O)C(Cc2cccc(C(=N)N)c2)NS(=O)(=O)NCCc2ccc3c(c2)OCO3)CC1 (stereo unspecified) | -0.636 |

| Structure (SMILES) | Log ESA |
| --- | --- |
| COc1ccccc1CNS(=O)(=O)NC(Cc1cccc(C(=N)N)c1)C(=O)N1CCN(C(C)=O)CC1 (stereo unspecified) | -0.815 |
| CC(=O)N1CCN(C(=O)C(Cc2cccc(C(=N)N)c2)NS(=O)(=O)NCCc2cccc(N)c2)CC1 (stereo unspecified) | -0.75 |
| CC(=O)N1CCN(C(=O)C(Cc2cccc(C(=N)N)c2)NS(=O)(=O)NCCOC2CCCCC2)CC1 (stereo unspecified) | -0.708 |
| COc1ccc2c(CNS(=O)(=O)NC(Cc3cccc(C(=N)N)c3)C(=O)N3CCN(C(C)=O)CC3)cccc2c1 (stereo unspecified) | -0.86 |
| CC(=O)N1CCN(C(=O)C(Cc2cccc(C(=N)N)c2)NS(=O)(=O)NCC2CNc3ccccc3C2)CC1 (stereo unspecified) | -0.674 |
| CC(=O)N1CCN(C(=O)C(Cc2cccc(C(=N)N)c2)NS(=O)(=O)NCc2ccc(Cl)cc2[N+](=O)[O-])CC1 (stereo unspecified) | -0.67 |
| CC(=O)N1CCN(C(=O)C(Cc2cccc(C(=N)N)c2)NS(=O)(=O)NCCc2cccc3ncccc23)CC1 (stereo unspecified) | -0.686 |
| CC(=O)N1CCN(C(=O)C(Cc2cccc(C(=N)N)c2)NS(=O)(=O)NCc2ccccc2O)CC1 (stereo unspecified) | -0.514 |
| CC(=O)N1CCN(C(=O)C(Cc2cccc(C(=N)N)c2)NS(=O)(=O)NCCCc2ccccc2C(=O)N2CCCC2)CC1 (stereo unspecified) | -1.027 |
| CC(=O)N1CCN(C(=O)C(Cc2cccc(C(=N)N)c2)NS(=O)(=O)NCc2cc(C)c(C)c(C)c2)CC1 (stereo unspecified) | -0.818 |
| CC(=O)N1CCN(C(=O)C(Cc2cccc(C(=N)N)c2)NS(=O)(=O)NCc2cccc(Oc3ccccc3)c2)CC1 (stereo unspecified) | -1.149 |
| COc1cccc(CNS(=O)(=O)NC(Cc2cccc(C(=N)N)c2)C(=O)N2CCN(CCO)CC2)c1OC (stereo unspecified) | -0.796 |
| CC(=O)N1CCN(C(=O)C(Cc2cccc(C(=N)N)c2)NS(=O)(=O)NCC2COc3ccccc3O2)CC1 (stereo unspecified) | -0.726 |
| CC(=O)N1CCN(C(=O)C(Cc2cccc(C(=N)N)c2)NS(=O)(=O)NCc2cccc3ccccc23)CC1 (stereo unspecified) | -0.842 |
| CC(=O)N1CCN(C(=O)C(Cc2cccc(C(=N)N)c2)NS(=O)(=O)NCC(c2ccccc2)c2ccccc2)CC1 (stereo unspecified) | -1.092 |
| CC(=O)N1CCN(C(=O)C(Cc2cccc(C(=N)N)c2)NS(=O)(=O)NCc2ccc(-c3ccccc3)cc2)CC1 (stereo unspecified) | -1.174 |
| CC(=O)N1CCN(C(=O)C(Cc2cccc(C(=N)N)c2)NS(=O)(=O)NCc2ccc(CCc3ccccc3)cc2)CC1 (stereo unspecified) | -1.252 |
| CC(=O)N1CCN(C(=O)C(Cc2cccc(C(=N)N)c2)NS(=O)(=O)NCc2c[nH]c3ccccc23)CC1 (stereo unspecified) | -0.914 |
| CC(=O)N1CCN(C(=O)C(Cc2cccc(C(=N)N)c2)NS(=O)(=O)NCCc2cccc3ccccc23)CC1 (stereo unspecified) | -1.114 |
| CC(=O)N1CCN(C(=O)C(Cc2cccc(C(=N)N)c2)NS(=O)(=O)NCc2ccccc2-c2ccccc2)CC1 (stereo in doubt; 5) | -1.071 |
| CC(CNS(=O)(=O)NC(Cc1cccc(C(=N)N)c1)C(=O)N1CCCC(C(=O)O)C1)c1ccccc1 (stereo in doubt; 9) | -0.762 |
| N=C(N)c1cccc(CC(NS(=O)(=O)NCc2cccc3ccccc23)C(=O)N2CCCC(C(=O)O)C2)c1 (stereo in doubt; 10) | -0.752 |
| CC(CNS(=O)(=O)NC(Cc1cccc(C(=N)N)c1)C(=O)N1CCCC(C(=O)O)C1)c1ccccc1 (stereo in doubt; 11) | -0.759 |
| N=C(N)c1cccc(CC(NS(=O)(=O)NCc2cccc3ccccc23)C(=O)N2CCCC(C(=O)O)C2)c1 (stereo in doubt; 12) | -0.893 |
| CC(=O)N1CCN(C(=O)C(Cc2cccc(C(=N)N)c2)NS(=O)(=O)NCc2ccccc2-c2ccccc2)CC1 (stereo in doubt; 20) | -0.987 |
